Data: ChEMBL document CHEMBL3600367, “Anti-plasmodial activity of bradykinin and analogs” (Bioorg Med Chem Lett, 2015)
Activity calls are given as the source filed them. The calls are words filed in the database; no cut-off is given here. Residues, ends and D or L forms follow the SMILES beside them.

Tests used:
[1] = test system: Plasmodium falciparum; assay: Antiplasmodial activity against Plasmodium falciparum W2 schizonts infected in human erythrocytes assessed as appearance of intracellular ring forms at 10^-8 mol/L after 24 hrs by Diff quick staining-based light microscopic analysis; assay type: functional, organism-based
[2] = test system: Plasmodium gallinaceum; assay: Antiplasmodial activity against mature Plasmodium gallinaceum sporozoites isolated from Aedes aegypti RED assessed as increase in membrane permeability at 60 umol/L after 1 hr by propidium iodide staining-based inverted fluorescence microscopic analysis; assay type: functional
[3] = Metabolic stability in plasma (unknown origin); assay type: ADME, cell-free

Stability [3]	SMILES	Activity [1]	Activity [2]
	CC(C)C[C@H](NC(=O)[C@@H]1CCCN1C(=O)[C@H](CO)NC(=O)[C@H](Cc1ccccc1)NC(=O)[C@H](CO)NC(=O)[C@H](CCCNC(=N)N)NC(=O)[C@@H](NC(=O)[C@@H]1CCCN1C(=O)[C@H](CC(C)C)NC(=O)CNC(=O)[C@@H]1CCCN1C(=O)[C@@H]1CCCN1C(=O)[C@@H](N)CCCNC(=N)N)C(C)C)C(=O)N[C@@H](CCCNC(=N)N)C(N)=O (H-RPPGLPVRSFSPLR-NH2)	inactive	Active
Stable	CC(C)C[C@@H](N)C(=O)N1CCC[C@@H]1C(=O)N[C@H](CO)C(=O)N[C@H](CCC(=O)O)C(=O)N[C@H](Cc1ccccc1)C(=O)N[C@H](CCCNC(=N)N)C(=O)N[C@@H](C(=O)N1CCC[C@@H]1C(=O)N[C@H](CC(C)C)C(=O)NCC(=O)N1CCC[C@@H]1C(=O)N[C@H](CCCNC(=N)N)C(N)=O)C(C)C	inactive	Active
	CC(C)C[C@H](NC(=O)[C@@H]1CCCN1C(=O)[C@H](CO)NC(=O)[C@H](CCC(=O)O)NC(=O)[C@H](Cc1ccccc1)NC(=O)[C@H](CCCNC(=N)N)NC(=O)[C@@H](NC(=O)[C@@H]1CCCN1C(=O)[C@H](CC(C)C)NC(=O)CNC(=O)[C@@H]1CCCN1C(=O)[C@@H](N)CCCNC(=N)N)C(C)C)C(N)=O (H-RPGLPVRFESPL-NH2)	inactive	inactive
	N=C(N)NCCC[C@H](NC(=O)[C@H](Cc1ccccc1)NC(=O)[C@@H]1CCCN1C(=O)[C@H](CO)NC(=O)[C@H](Cc1ccccc1)NC(=O)CNC(=O)[C@@H]1CCCN1C(=O)[C@@H]1CCCN1C(=O)[C@@H](N)CCCNC(=N)N)C(=O)O [BRADYKININ] (H-RPPGFSPFR-OH)	inactive	98%
Stable	CC(C)C[C@@H](NC(=O)[C@H]1CCCN1C(=O)[C@H](NC(=O)[C@@H](CCCNC(=N)N)NC(=O)[C@@H](CO)NC(=O)[C@@H](Cc1ccccc1)NC(=O)[C@@H](CO)NC(=O)[C@H]1CCCN1C(=O)[C@@H](CC(C)C)NC(=O)[C@H](N)CCCNC(=N)N)C(C)C)C(=O)NCC(=O)N1CCC[C@@H]1C(=O)N1CCC[C@@H]1C(=O)N[C@H](CCCNC(=N)N)C(N)=O	inactive	
	CC[C@H](C)[C@H](NC(=O)[C@H](Cc1ccc(O)cc1)NC(=O)[C@@H](NC(=O)[C@H](CCCNC(=N)N)NC(=O)[C@@H](N)CC(=O)O)C(C)C)C(=O)N[C@@H](Cc1cnc[nH]1)C(=O)N1CCC[C@H]1C(=O)N[C@@H](Cc1ccccc1)C(=O)O [ANGIOTENSIN II]		88%
